Patent publication US6083915A, “Method for treating liver cancer” (Biomeasure, Inc., priority 1991, dated 2000)

Test system: M5123 hepatoma
Assay type: in vivo
Settings: for % Test/Control / Tumor Weight (mg) Day 18: 100 μg/inj., s.c., b.i.d., q.d. 1-20; for % Test/Control: day 18; for Tumor Weight (mg) Day 18: mean ± s.e.m.
Excerpt: The M5123 hepatoma cells, obtained from Dr. H. P. Morris at the National Cancer Institute, were induced in the Buffalo strain of rats by ingestion of N-(2-fluorenyl-phthalamic acid) and established in serial transplantation. Implantation of the M5123 hepatoma cells in an immunodeficient athymic mouse reproducibly results in progressively growing, lethal tumor.
In contrast to the subrenal capsule assay, in the subcutaneous assay, tumor xenografts are implanted subcutaneously, rather than under the subrenal capsule, and treatment can be initiated at any selected time after the implantation.
In this assay, tumors were implanted subcutaneously in the right flank of athymic female mice and test compounds, BIM-26159, BIM-26187, BIM-26189, BIM-26218, BIM-26223 and BIN-26228, and control were injected subcutaneously in the left flank. For the structures of BIM-26159, BIM-26187, BIM-26189, see "Summary of the Invention" above. The structures of BIM-26223 and BIM-26228 are as follows:
Response of an implanted tumor to the treatment was monitored as follows. The length and width of the tumor were first measured using sensitive Vernier calipers. Tumor weight was then calculated based on the measurements as follows: [length (mm)×width (mm)^2 ]/2 mg. In addition to tumor size or weight, this assay system permits the parameter of "lag time", i.e., the effect of early treatment on the growth potential of tumors to reach a certain size.
In one experiment, thirty two mice were implanted subcutaneously with M5123 hepatoma xenografts on day 0 and randomized into four groups of eight animals per group. The bombesin analog BIM-26159 was administered at 250, 50, 10 μg per injection, S.C., b.i.d.,q.d. 1-18.
In another experiment, we tested the activity of five bombesin analogs, i.e., BIM-26187, BIM-26189, BIM-26218, BIM-26223 and BIM-26228, over a period of 18 days. Forty mice were implanted s.c. with M5123 hepatoma xenografts on day 0, and the randomized into ten animals in the control group and six animals per test group. All compounds were administered at 100 μg per injection, s.c., b.i.d., q.d. 1-18.

Compound	% Test/Control [%]	Tumor Weight (mg) Day 18 [mg]	effect on growth of the tumor cells (in words) (100 μg per injection, over 18 days)
CC(C)C[C@H](NC(=O)[C@H](CC(C)C)NC(=O)[C@H](Cc1c[nH]cn1)NC(=O)CNC(=O)[C@@H](NC(=O)[C@H](C)NC(=O)[C@H](Cc1c[nH]c2ccccc12)NC(=O)[C@H](CCC(N)=O)NC(=O)[C@H](N)Cc1ccccc1)C(C)C)C(N)=O [BIM-26187, D-Phe-Gln-Trp-Ala-Val-Gly-His-Leu-Leu-NH2]	83	482.8 ± 175.0	–
D-Phe-Gln-Trp-Ala-Val-Gly-CHxAla-Leu-NH2 [BIM-26228]	115	667.2 ± 181.6	slightly stimulated growth
